In patent US20170224662A1 (priority 2016, published 2017):
≈ marks a conversion by molar mass, not a printed value. Read-outs that look alike come from different tables or passages of the source.

Key:
Type in all cases: physicochemical
physchem [1] = conditions: aqueous buffer, thermodynamic from solid, read-out: Actual [CPMM] Concentration (maximum solubility)
Description: CPMM was evaluated for maximum solubility in aqueous pH 1-9 buffer solutions. CPMM was weighted into 1.0 mL of each solution, vortex mixed to solubilize, and placed on a shaker table until saturated. Additional CPMM was added and replaced on the shaker table until a saturated solution was obtained. The one exception was the pH 1 sample solution, which never reached saturation level due to the CPMM's high solubility at that pH range. Saturated solutions were centrifuged and the supernatants were analyzed by HPLC.

physchem [2] = conditions: imidazole nitrogen in position 3; solubility analysis (log solubility curve) and titration
Description: The solubility of compounds as disclosed herein is pH-dependent. The imidazole nitrogen in position 3 of CPMM has a pKa of approximately 2.5, as determined by solubility analysis and titration. For example, CPMM is very water soluble at low pH, but solubility decreases with increasing pH, such that it is lower at pH 3-8.

physchem [3] = conditions: for HPLC [CPMM] Concentration: diluted sample; for Actual [CPMM] Concentration: never saturated, stopped after 100 mg added
Description: CPMM solubility was also evaluated in common solvents: water, methanol, ethanol, acetonitrile, and isopropanol. CPMM was weighed into 1.0 mL of each solvent and vortex-mixed. Only the water sample was saturated with CPMM; the other solvents never achieved saturation due to their high CPMM solubility. The screening was stopped after 100 mg of bulk CPMM had been added. Table 2 lists the ABP-700 solubility results in common solvents.

[4] = 1- and 2-week accelerated stability of CPMM (~0.3 mg/mL) in aqueous pH buffer media, HPLC purity; conditions: for CPMM % Purity: t = 0
Description: The aqueous CPMM pH 1-9 samples described above were diluted as necessary to approximately 0.3 mg/mL and placed on accelerated stability at 25° C./60% relative humidity and 40° C./75% relative humidity conditions for two weeks. Samples were pulled at t=0, 1, and 2 weeks from set-up, and analyzed by HPLC. Samples were diluted to approximately 0.3 mg/mL, which well below the HPLC method nominal concentration, due to concerns of precipitation during the two week stability study. The injection volume was increased to compensate for the lower drug concentration in solution. The change in CPMM purity over the study duration is listed in Table 3 and plotted in FIGS. 3-5.
The pH 1 sample was placed on stability at a non-diluted concentration due to an error. This sample was re-diluted at the one-week time point to match the concentration in the pH 2-9 samples and re-placed on stability. The pH 9 sample results were not included in FIGS. 3-5 due to excessive degradation and for easier visual assessment over the more relevant pH 2-8 range.

physchem [5] = conditions: thermodynamic from solid
Description: A study was conducted to evaluate whether buffer concentration affects the maximum solubility of CPMM. […] The solutions were prepared and CPMM was added until saturation was achieved. The pH was controlled by continually titrating the solutions to pH 6 using NaOH. Saturation was determined to have been achieved after the pH had stabilized and undissolved remained in the vial after overnight shaking. Solubility was evaluated by taking two separate samplings over the course of two days to verify that saturation had been achieved. Solubility was measured when the formulations were at room temperature, as well as tested when the formulations were under sub-ambient conditions (2-8° C.) to evaluate whether the solubility would be affected at lower temperatures for long term storage at (2-8° C.).

SMILES: COC(=O)C1(OC(=O)c2cncn2[C@H](C)c2ccccc2)CC1 [CPMM, 1-(methoxycarbonyl)cyclopropyl-1-[(1R)-1-phenylethyl]-1H-imidazole-5-carboxylate]
- solubility (physchem [1]; 50 mM buffer pH 1 (phosphoric acid), actual pH 0.63, never saturated, not a true maximum solubility): 404000 µg/mL (≈ 1280 mM)
- solubility (physchem [1]; 50 mM buffer pH 2 (phosphoric acid), actual pH 1.43): 49400 µg/mL (≈ 157 mM)
- solubility (physchem [1]; 50 mM buffer pH 3 (phosphoric acid), actual pH 2.62): 3150 µg/mL (≈ 10 mM)
- solubility (physchem [1]; 50 mM buffer pH 4 (citric acid), actual pH 3.5): 677 µg/mL (≈ 2.15 mM)
- solubility (physchem [1]; 50 mM buffer pH 5 (citric acid), actual pH 4.57): 325 µg/mL (≈ 1.03 mM)
- solubility (physchem [1]; 50 mM buffer pH 6 (citric acid), actual pH 5.55): 284 µg/mL (≈ 0.903 mM)
- solubility (physchem [1]; 50 mM buffer pH 7 (phosphoric acid), actual pH 6.68): 268 µg/mL (≈ 0.853 mM)
- solubility (physchem [1]; 50 mM buffer pH 8 (phosphoric acid), actual pH 7.48): 260 µg/mL (≈ 0.827 mM)
- solubility (physchem [1]; 50 mM buffer pH 9 (phosphoric acid), actual pH 8.81): 279 µg/mL (≈ 0.888 mM)
- pKa (physchem [2]): ~2.5
- HPLC [CPMM] Concentration (physchem [3]; Acetonitrile, dilution factor 166.67): 474.2 µg/mL
- Actual [CPMM] Concentration (physchem [3]; Acetonitrile): 79034.9 µg/mL
- HPLC [CPMM] Concentration (physchem [3]; Ethanol, dilution factor 166.67): 534.3 µg/mL
- Actual [CPMM] Concentration (physchem [3]; Ethanol): 89051.8 µg/mL
- HPLC [CPMM] Concentration (physchem [3]; Isopropanol, dilution factor 166.67): 514.5 µg/mL
- Actual [CPMM] Concentration (physchem [3]; Isopropanol): 85751.7 µg/mL
- HPLC [CPMM] Concentration (physchem [3]; Methanol, dilution factor 166.67): 503.2 µg/mL
- Actual [CPMM] Concentration (physchem [3]; Methanol): 83868.3 µg/mL
- HPLC [CPMM] Concentration (physchem [3]; Water, dilution factor 6.67): 449.2 µg/mL
- solubility thermodynamic (physchem [3]; thermodynamic from solid, Water, saturated, read-out: Actual [CPMM] Concentration): 3000 µg/mL (≈ 9.53 mM)
- CPMM % Purity ([4]; 50 mM buffer pH 2 (Phosphoric Acid)): 99.39%
- CPMM % Purity ([4]; 50 mM buffer pH 3 (Phosphoric Acid)): 99.33%
- CPMM % Purity ([4]; 50 mM buffer pH 4 (Citric Acid)): 98.59%
- CPMM % Purity ([4]; 50 mM buffer pH 5 (Citric Acid)): 97.77%
- CPMM % Purity ([4]; 50 mM buffer pH 6 (Citric Acid)): 97.55%
- CPMM % Purity ([4]; 50 mM buffer pH 7 (Phosphoric Acid)): 98.16%
- CPMM % Purity ([4]; 50 mM buffer pH 8 (Phosphoric Acid)): 98.32%
- CPMM % Purity ([4]; 50 mM buffer pH 9 (Boric Acid)): 94.98%
- Change in CPMM % Purity ([4]; pH 5 (Citric Acid), 25° C./60% RH, t = 1 week): −0.62%
- Change in CPMM % Purity ([4]; pH 5 (Citric Acid), 25° C./60% RH, t = 2 week): −1.06%
- Change in CPMM % Purity ([4]; pH 5 (Citric Acid), 40° C./75% RH, t = 1 week): −2.16%
- Change in CPMM % Purity ([4]; pH 5 (Citric Acid), 40° C./75% RH, t = 2 week): −3.48%
- Change in CPMM % Purity ([4]; pH 6 (Citric Acid), 25° C./60% RH, t = 1 week): −0.33%
- Change in CPMM % Purity ([4]; pH 6 (Citric Acid), 25° C./60% RH, t = 2 week): −0.55%
- Change in CPMM % Purity ([4]; pH 6 (Citric Acid), 40° C./75% RH, t = 1 week): −2.72%
- Change in CPMM % Purity ([4]; pH 6 (Citric Acid), 40° C./75% RH, t = 2 week): −3.49%
- Change in CPMM % Purity ([4]; pH 7 (Phosphoric Acid), 25° C./60% RH, t = 1 week): −0.39%
- Change in CPMM % Purity ([4]; pH 7 (Phosphoric Acid), 25° C./60% RH, t = 2 week): −0.96%
- solubility (physchem [5]; 2 °C, pH 6.02, aqueous with cosolvent or surfactant or cyclodextrin, 10% SBECD in 25 mM Citrate, 2-8° C./ambient RH, pH 6.02, read-out: CPMM Amount (maximum solubility)): 5590 µg/mL (≈ 17.8 mM)
- solubility (physchem [5]; 2 °C, pH 6.05, aqueous with cosolvent or surfactant or cyclodextrin, 10% SBECD in 10 mM Citrate, 2-8° C./ambient RH, pH 6.05, read-out: CPMM Amount (maximum solubility)): 5480 µg/mL (≈ 17.4 mM)
- solubility (physchem [5]; pH 5.96, aqueous buffer, 10 mM Citrate, RT/Ambient RH, pH 5.96, read-out: CPMM Amount (maximum solubility)): 300 µg/mL (≈ 0.954 mM)
- solubility (physchem [5]; pH 5.98, aqueous buffer, 50 mM Citrate, RT/Ambient RH, pH 5.98, read-out: CPMM Amount (maximum solubility)): 230 µg/mL (≈ 0.732 mM)
- solubility (physchem [5]; pH 5.98, aqueous with cosolvent or surfactant or cyclodextrin, 10% SBECD in 10 mM Citrate, RT/Ambient RH, pH 5.98, read-out: CPMM Amount (maximum solubility)): 5470 µg/mL (≈ 17.4 mM)
- solubility (physchem [5]; pH 5.98, aqueous with cosolvent or surfactant or cyclodextrin, 10% SBECD in 25 mM Citrate, RT/Ambient RH, pH 5.98, read-out: CPMM Amount (maximum solubility)): 5490 µg/mL (≈ 17.5 mM)
- solubility (physchem [5]; pH 5.99, aqueous with cosolvent or surfactant or cyclodextrin, 10% SBECD in 50 mM Citrate, RT/Ambient RH, pH 5.99, read-out: CPMM Amount (maximum solubility)): 5680 µg/mL (≈ 18.1 mM)
- solubility (physchem [5]; pH 6, aqueous buffer, 25 mM Citrate, RT/Ambient RH, pH 6.00, read-out: CPMM Amount (maximum solubility)): 280 µg/mL (≈ 0.891 mM)
- solubility (physchem [5]; pH 6, aqueous buffer, citrate solutions containing no SBECD, read-out: solubility): ~300 µg/mL (≈ 0.954 mM)
- solubility (physchem [5]; pH 6, aqueous with cosolvent or surfactant or cyclodextrin, 10% SBECD solutions at all citrate concentrations, regardless of the condition, read-out: solubility): ~5500 µg/mL (≈ 17.5 mM)
